Results reported in patent US20100031388A1, “MUTANT HISTIDINE KINASE THAT CONFERS SPONTANEOUS NODULATION IN PLANTS” (Plant Biosciences Ltd., priority 2006, published 2010).

What was measured:
[1] = tested on: L. japonicus wild type and snf2 plants; settings: increasing concentrations of BAP, 3 weeks (FIG. 8)
Protocol: Accordingly, wild type and snf2 plants were grown on ½ B5 salt with and without increasing concentrations of BAP for 3 weeks. Shoot and root length of at least 60 plants for each treatment was measured.

[2] = tested on: Lrr5, Lhk1 and Nin transcripts; assay: Quantitative RT-PCR of Lrr5, Lhk1 and Nin transcripts in roots and root explants in response to cytokinin; format: in vivo, Lotus japonicus
Protocol: Steady state levels of Lhk1 and ARR transcripts were determined in roots and other plant organs by quantitative RT-PCR analysis according to the following protocol.
Wild type and snf2 seeds were surface sterilised and germinated as described previously (Handberg, and Stougaard, (1992) Plant J. 2: 487). Plants were grown with 16 h light/8 h dark period at 21° C. Total RNA was isolated from roots, nodules, leaves, flowers and pods of inoculated wild type L. japonicus. mRNA was extracted from roots of wild type and snf2 plants grown for 2 weeks on ¼ B&D (Broughton and Dilworth, (1971) Biochem. J. 125: 1075) supplemented with 0.5 μM potassium nitrate. Roots were treated with 10 μM BAP for three time points, 30 minutes, 3 hours and 8 hours. Untreated roots were taken as control. mRNA was also extracted from root segments of wild type and snf2 plants grown for 10 days on hormone-free B5 salt medium and B5 salt medium supplemented with 0.5 μg/ml of BAP. Dynabeads mRNA direct kit (Invitrogen) was used for the extraction of mRNA.
First strand cDNA was prepared using reverse transcriptase (Fermentas). Quantitative PCR was performed on a Light Cycler (Roche Molecular Biochemicals) using Fast Start DNA master SYBR green kit (Roche) to amplify the target transcripts from 5 μl diluted cDNA. Four house keeping genes (Czechowski et al., (2005) Genome analysis 139: 5) were used to determine the relative expression of target genes (see below). For each treatment, normalized relative ratios of the target genes and the four independent house keeping genes have been calculated using the Relative Quantification Software (Quant) from Roche. The geometric mean (Vandesompele et al., (2002)Genome Biology 3:1) of the relative expression ratios for the three biological and technical replicates and the corresponding 95% intervals of confidence have been calculated as described previously (Radutoiu et al., (2003) Nature 425: 585).

[3] = tested on: mutant LHK1 cytokinin receptor (snf2 allele); settings: liquid culture, snf2 allele expressing cells (FIG. 5B)
From the text: (§1) In this assay cytokinin induction can be determined without interference from endogenous cytokinin levels, cytokinin penetration and interfering metabolic pathways present in plants. The phosphorelay exploited in this assay is normally involved in regulating bacterial extracellular polysaccharide synthesis through activation of the cps operon in response to a sensor (RcsC), which has a domain structure similar to plant cytokinin receptors. Functional expression of a cytokinin receptor in an E. coli strain deleted of RcsC sensor allows cytokinin perception to be read out as β-galactosidase activity from the expression of a cps::lacZ fusion.
(§2) Accordingly the Lhk1 cDNAs, corresponding to wild type and snf2 allele were cloned into the pIN-III expression vector and transformed into the sensor-negative SRC122 (ΔRcsC) strain harbouring the cps::lacZ gene. The transformants were grown overnight in liquid […] and then spotted on LB plates, supplemented with and without t-zeatin, kinetin, BAP (200 μM) each and thidiazuron (50 μM). The LB media was further supplemented with X-Gal (5-bromo-4-chloro-3-indolyl-β-D-[…]), a β-galactosidase substrate. After 40 hours incubation at room temperature (25° C.), the plates were photographed. E coli strain (SRC122) was taken as a negative control.

[4] = tested on: wild type LHK1 cytokinin receptor; settings: liquid culture, LHK1 expressing cells (FIG. 5B)
From the text: as §1, §2

wild type Lotus roots = assay: Spontaneous nodulation of wild type hairy roots transformed via A. rhizogenes, scored without rhizobia; format: in vivo, Lotus japonicus; settings: scored in absence of M. loti
Protocol: Transgenic expression of the wild type or mutant snf2 allele in wild type Lotus roots was performed in order to confirm in planta the genetic basis for the spontaneous nodulation phenotype. A genomic fragment of 12.7 kb from the BAC clone 1 K18 was used to clone out the wild type Lhk1 gene including a 2.2 kb promoter region, and its Snf2 allele comprising the C→T transition, which were then sub-cloned into the pIV10 plasmid. The constructs were integrated into A. rhizogenes strain AR12 by tri-parental mating. Transformation was performed as described by Stougaard (1995) Method Mol Biology 49: Plant Gene Transfer and Expression Protocols, p. 49-63, and included transformation with an empty vector control.

cps::lacZ reporter = assay: Two-component phosphorelay assay in E. coli SRC122 (cps::lacZ), receptor activity read out as β-galactosidase; format: cell-based; settings: LB plates with/without t-zeatin, kinetin, BAP (200 μM) or thidiazuron (50 μM), 40 hours, 25° C.
From the text: as §1, §2

Q: With `C/C(=C\CNc1ncnc2nc[nH]c12)CO` [Cytokinin, Trans-zeatin] as the compound, how does the “sensitivity of shoot and root growth of snf2 plants compared to wild type” value [1] read?
A: hypersensitive

Q: What about the Lrr5 transcript level ([2]; direct treatment of intact snf2 and wild-type roots, 10 μM BAP, 30 minutes, 3 hours, 8 hours (FIG. 7C)) of the same compound?
A: increased

Q: And the Lhk1 gene transcripts ([2]; intact wild type and snf2 roots (FIG. 7D))?
A: increase rapidly

Q: And the Nin gene transcription ([2]; intact wild type and snf2 roots (FIG. 7E))?
A: transcriptionally upregulated

Q: What about the “increase of β-galactosidase activity on cytokinin addition” value [3] of the same compound?
A: only a marginal increase

Q: What about the “induction of β-galactosidase activity on cytokinin addition” value [4] of the same compound?
A: two fold induction

Q: How did the nodule number/nodulated plant (wild type Lotus roots) turn out when “Wild type Lhk1 allele: Wild type Lotus histidine kinase gene Lhk1 (SEQ ID NO:1, 2) encoding LHK1 cytokinin receptor protein (SEQ ID NO:3)” was run?
A: 0

Q: What about the nodule number/plant (wild type Lotus roots) of the same compound?
A: 0

Q: And the “% spontaneous nodulation” value (wild type Lotus roots; (nodulated/total plants))?
A: 0 (0/41) %

Q: What about the “β-galactosidase activity, plate assay (X-Gal)” value (cps::lacZ reporter) of the same compound?
A: induced β-galactosidase activity in a cytokinin-dependent fashion

Q: For `c1ccc(CNc2ncnc3nc[nH]c23)cc1` [BAP, 6-benzylaminopurine], which “increase of Lrr5 transcript level” value ([2]; snf2 and wild-type root explants on B5 medium, 0.5 μg/ml BAP, 10 days (FIG. 7B)) is on record?
A: two to three-fold
